Patent US12514832B2, “Methods for using low-dose colchicine after myocardial infarction” (INSTITUT DE CARDIOLOGIE DE MONTREAL, priority 2019, dated 2026)

System: patients recruited within 30 days after a myocardial infarction
Assay: COLCOT randomized, double-blind, placebo-controlled trial: clinical efficacy end points
Format: in vivo, human
Set-up: Primary efficacy composite endpoint, % of patients with event: concentration or dose not given beside the values
Protocol: We performed a randomized, double-blind trial involving patients recruited within 30 days after a myocardial infarction. The patients were randomly assigned to receive either low-dose colchicine (0.5 mg once daily) or placebo. A total of 4745 patients were enrolled; 2366 patients were assigned to the colchicine group, and 2379 to the placebo group. Patients were followed for a median of 22.6 months.
The primary efficacy end point was a composite of death from cardiovascular causes, resuscitated cardiac arrest, myocardial infarction, stroke, or urgent hospitalization for angina leading to coronary revascularization. The components of the primary end point and safety were also assessed.
In this randomized, double-blind, placebo-controlled, investigator-initiated trial, we assigned patients in a 1:1 ratio to receive either colchicine (at a dose of 0.5 mg once daily) or placebo. The trial protocol, available at NEJM.org, was designed by a trial steering committee. The protocol was approved by the institutional review board at each of the 167 centers in the 12 countries that participated in the trial (available at NEJM.org). All trial support activities, including project coordination, data management, site monitoring, and statistical oversight and analyses, were performed at the Montreal Health Innovations Coordinating Center. Potential trial end-point events were adjudicated by an independent clinical end-point committee composed of experienced cardiologists and neurologists who were unaware of the trial-group assignments. The trial was overseen by a data and safety monitoring board of independent experts. The trial medication and matching placebo were provided by Pharmascience.
Patients were excluded if they had severe heart failure, a left ventricular ejection fraction of less than 35%, stroke within the previous 3 months, a type 2 index myocardial infarction, coronary-bypass surgery either within the previous 3 years or planned, a history of noncutaneous cancer within the previous 3 years, inflammatory bowel disease or chronic diarrhea, neuromuscular disease or a nontransient creatine kinase level that was greater than three times the upper limit of the normal range (unless due to infarction), clinically significant nontransient hematologic abnormalities, severe renal disease with a serum creatinine level that was greater than two times the upper limit of the normal range; severe hepatic disease, drug or alcohol abuse, current or planned long-term systemic glucocorticoid therapy, or a history of clinically significant sensitivity to colchicine. (Details regarding eligibility criteria are provided herein.)
The primary efficacy end point was a composite of death from cardiovascular causes, resuscitated cardiac arrest, myocardial infarction, stroke, or urgent hospitalization for angina leading to coronary revascularization in a time-to-event analysis.
The secondary end points consisted of the components of the primary efficacy end point; a composite of death from cardiovascular causes, resuscitated cardiac arrest, myocardial infarction, or stroke; and total mortality in time-to-event analyses. Coronary revascularization, hospitalization for heart failure, atrial fibrillation, and deep venous thrombosis or pulmonary embolus were prespecified as exploratory end points in the protocol.
The efficacy analyses were conducted with the use of positively adjudicated data and according to the intention-to-treat principle. The primary end point was compared between the two trial groups with the use of a log-rank test, and the hazard ratio from a Cox proportional-hazards model, with a 95% confidence interval, was calculated. A Cox proportional-hazards model with adjustment for important baseline characteristics was also used as prespecified in the protocol.
The analysis of the primary end point was repeated in the per-protocol population (i.e., patients without major protocol deviations). […]

[1] = per-protocol population, N=2260

SMILES: COc1cc2c(c(OC)c1OC)-c1ccc(OC)c(=O)cc1[C@@H](NC(C)=O)CC2 [Colchicine, colchicine]
- Primary efficacy composite endpoint, Hazard ratio (colchicine vs placebo, subgroup Female): 0.99
- Primary efficacy composite endpoint, Hazard ratio (colchicine vs placebo, subgroup History of diabetes No): 0.85
- Primary efficacy composite endpoint, Hazard ratio (colchicine vs placebo, subgroup History of diabetes Yes): 0.65
- Primary efficacy composite endpoint, Hazard ratio (colchicine vs placebo, subgroup History of hypertension No): 0.80
- Primary efficacy composite endpoint, Hazard ratio (colchicine vs placebo, subgroup History of hypertension Yes): 0.76
- Primary efficacy composite endpoint, Hazard ratio (colchicine vs placebo, subgroup Male): 0.70
- Primary efficacy composite endpoint, Hazard ratio (colchicine vs placebo, subgroup Non-smoker): 0.90
- Primary efficacy composite endpoint, Hazard ratio (colchicine vs placebo, subgroup Previous smoker): 0.59
- Primary efficacy composite endpoint, Hazard ratio (colchicine vs placebo, subgroup Prior MI No): 0.68
- Primary efficacy composite endpoint, Hazard ratio (colchicine vs placebo, subgroup Prior MI Yes): 1.05
- Primary efficacy composite endpoint, Hazard ratio (colchicine vs placebo, subgroup Prior PCI or CABG No): 0.72
- Primary efficacy composite endpoint, Hazard ratio (colchicine vs placebo, subgroup Prior PCI or CABG Yes): 0.91
- Primary efficacy composite endpoint, Hazard ratio (colchicine vs placebo, subgroup Prior stroke or TIA No): 0.76
- Primary efficacy composite endpoint, Hazard ratio (colchicine vs placebo, subgroup Prior stroke or TIA Yes): 1.09
- Primary efficacy composite endpoint, Hazard ratio (colchicine vs placebo, subgroup White blood cell count Above median): 0.80
- Primary efficacy composite endpoint, Hazard ratio (colchicine vs placebo, subgroup White blood cell count Below median): 0.85
- Primary endpoint, hazard ratio (colchicine vs placebo, women, per-protocol population): 0.81 (0.47; 1.41)
- MI, % [1]: 3.4%
- MI, no. of patients [1]: 77
- Primary endpoint, % of patients [1]: 5.1%
- Primary endpoint, no. of patients [1]: 115
- Resuscitated cardiac arrest, % [1]: 0.2%
- Resuscitated cardiac arrest, no. of patients [1]: 5
- Stroke, % [1]: 0.2%
- Stroke, no. of patients [1]: 5
- Urgent hospitalization for angina requiring revascularization, % [1]: 1.0%
- Urgent hospitalization for angina requiring revascularization, no. of patients [1]: 22
- Primary efficacy composite endpoint, % of patients with event (subgroup Active smoker): 5.4%
- Primary efficacy composite endpoint, no. of patients with event (subgroup Active smoker, total 708): 38
- Primary efficacy composite endpoint, % of patients with event (subgroup Female): 7.8%
- Primary efficacy composite endpoint, no. of patients with event (subgroup Female, total 472): 37
- Primary efficacy composite endpoint, % of patients with event (subgroup History of diabetes No): 4.8%
- Primary efficacy composite endpoint, no. of patients with event (subgroup History of diabetes No, total 1904): 91
- Primary efficacy composite endpoint, % of patients with event (subgroup History of diabetes Yes): 8.7%
- Primary efficacy composite endpoint, no. of patients with event (subgroup History of diabetes Yes, total 462): 40
- Primary efficacy composite endpoint, % of patients with event (subgroup History of hypertension No): 4.1%
- Primary efficacy composite endpoint, no. of patients with event (subgroup History of hypertension No, total 1181): 48
- Primary efficacy composite endpoint, % of patients with event (subgroup History of hypertension Yes): 7.0%
- Primary efficacy composite endpoint, no. of patients with event (subgroup History of hypertension Yes, total 1185): 83
- Primary efficacy composite endpoint, % of patients with event (subgroup Male): 5.0%
- Primary efficacy composite endpoint, no. of patients with event (subgroup Male, total 1894): 94
- Primary efficacy composite endpoint, % of patients with event (subgroup Non-smoker): 6.0%
- Primary efficacy composite endpoint, no. of patients with event (subgroup Non-smoker, total 787): 47
- Primary efficacy composite endpoint, % of patients with event (subgroup Previous smoker): 5.3%
- Primary efficacy composite endpoint, no. of patients with event (subgroup Previous smoker, total 871): 46
- Primary efficacy composite endpoint, % of patients with event (subgroup Prior MI No): 4.3%
- Primary efficacy composite endpoint, no. of patients with event (subgroup Prior MI No, total 1996): 85
- Primary efficacy composite endpoint, % of patients with event (subgroup Prior MI Yes): 12.4%
- Primary efficacy composite endpoint, no. of patients with event (subgroup Prior MI Yes, total 370): 46
- Primary efficacy composite endpoint, % of patients with event (subgroup Prior PCI or CABG No): 4.3%
- Primary efficacy composite endpoint, no. of patients with event (subgroup Prior PCI or CABG No, total 1947): 83
- Primary efficacy composite endpoint, % of patients with event (subgroup Prior PCI or CABG Yes): 11.5%
- Primary efficacy composite endpoint, no. of patients with event (subgroup Prior PCI or CABG Yes, total 419): 48
- Primary efficacy composite endpoint, % of patients with event (subgroup Prior stroke or TIA No): 5.3%
- Primary efficacy composite endpoint, no. of patients with event (subgroup Prior stroke or TIA No, total 2311): 123
- Primary efficacy composite endpoint, % of patients with event (subgroup Prior stroke or TIA Yes): 14.5%
- Primary efficacy composite endpoint, no. of patients with event (subgroup Prior stroke or TIA Yes, total 55): 8
- Primary efficacy composite endpoint, % of patients with event (subgroup White blood cell count Above median): 5.3%
- Primary efficacy composite endpoint, no. of patients with event (subgroup White blood cell count Above median, total 637): 34
- Primary efficacy composite endpoint, % of patients with event (subgroup White blood cell count Below median): 6.2%
- Primary efficacy composite endpoint, no. of patients with event (subgroup White blood cell count Below median (8.64 × 10^3/μL), total 660): 41
